# Reference: patent US6689798B2, “Benzofuran derivatives” (Daiichi Pharmaceutical Co., Ltd., priority 2000, dated 2004)
# Structures can show the parent of a compound that is named as a salt.
# Target: T1, steroid 17α-hydroxylase and/or steroid C17-20 lyase (Rattus norvegicus, UniProt P11715)
# T1 construct: the testis of rats (SD, male) was homogenized and centrifuged to obtain microsome; from tissue; host or cells: rat (SD, male) testis microsomes
# T1 sequence (P11715 1-507): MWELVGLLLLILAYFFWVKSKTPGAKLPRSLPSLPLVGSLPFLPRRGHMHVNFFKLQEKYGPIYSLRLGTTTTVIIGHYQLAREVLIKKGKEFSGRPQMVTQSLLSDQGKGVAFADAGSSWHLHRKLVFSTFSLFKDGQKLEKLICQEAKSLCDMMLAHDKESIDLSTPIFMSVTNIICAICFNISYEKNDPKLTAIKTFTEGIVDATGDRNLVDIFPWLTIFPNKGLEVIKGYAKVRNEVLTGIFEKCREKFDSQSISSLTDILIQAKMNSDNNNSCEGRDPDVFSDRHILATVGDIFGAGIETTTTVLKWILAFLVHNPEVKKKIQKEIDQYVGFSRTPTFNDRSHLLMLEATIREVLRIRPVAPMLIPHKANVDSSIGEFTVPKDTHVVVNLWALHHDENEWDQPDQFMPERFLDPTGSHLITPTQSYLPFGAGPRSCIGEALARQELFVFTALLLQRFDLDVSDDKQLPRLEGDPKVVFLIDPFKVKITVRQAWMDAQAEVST
# Assay: Measurement of steroid 17α-hydroxylase and/or steroid C17-20 lyase inhibitory activity (rat testis microsome)
# Type: biochemical
# Settings: test compound 300 nM, substrate 25 μM 17α-hydroxyprogesterone, NADPH 500 μM
# Procedure: An experiment was carried out according to the method of T. Sergejew and R. W.
# Hartmann (J. Enzyme Inhibition, 8, 113 (1994)). That is, the testis of rats (SD, male) was homogenized and centrifuged to obtain microsome. Each compound of the present invention prepared in Examples 1-13 was put into a micro tube (1.5 ml, Eppendorf Co.). After the addition of 100 μl of microsome protein solution, the concentration of which was adjusted to 0.1 mg/ml using 50 mM phosphate buffer solution (pH 7.4), 140 μl of 125 nmol NADPH solution, and 10 μl of 6.25 nmol 17α-hydroxyprogesterone, the mixture was incubated at 37° C. for 20 minutes. 50 μl of 1N hydrochloric acid and 1000 μl of ethyl acetate were sequentially added to the mixture. The mixture was shaken and centrifuged. The ethyl acetate layer was then washed with 250 μl of 50 mM phosphate buffer solution (pH 7.4) and 50 μl of IN hydrochloric acid, centrifuged, and concentrated. The concentrate was dissolved in 100 μl of acetonitrile. 10 μl of this solution was charged to high performance liquid chromatography. The amounts of the substrate and the formed product (androstenedione and testosterone) were measured to determine the enzyme activity. A sample without the test compound added was provided as a control. Steroid 17α-hydroxylase and/or steroid C17-20 lyase inhibitory activity (%) was calculated from the amounts of each substrate and product using the following equation (1). [formula]
row,inhibition at 0.3 µM [%],Structure (SMILES)
1,64,"Fc1ccc(-c2ccc3c(-c4cccnc4)coc3c2)cc1 [Example 3, 3-[6-(4-fluorophenyl)benzo[b]furan-3-yl] Pyridine]"
2,45,"Fc1cccc(-c2ccc3c(-c4cccnc4)coc3c2)c1 [Example 4, 3-[6-(3-fluorophenyl)benzo[b]furan-3-yl] Pyridine]"
3,90,"Nc1cccc(-c2ccc3c(-c4cccnc4)coc3c2)c1 [Example 6, 3-[3-(3-pyridyl)benzo[b]furan-6-yl]phenylamine]"
4,75,"c1cncc(-c2ccc3c(-c4cccnc4)coc3c2)c1 [Example 7, 3-[6-(3-pyridyl)benzo[b]furan-3-yl]pyridine]"
5,45,"c1ccc(-c2ccc3c(-c4cccnc4)coc3c2)cc1 [Example 9, 3-(6-phenylbenzo[b]furan-3-yl)pyridine]"
6,81,"Oc1cccc(-c2ccc3c(-c4cccnc4)coc3c2)c1 [Example 11, 3-[3-(3-pyridyl)benzo[b]furan-6-yl]phenol]"
7,66,"Oc1ccc(-c2ccc3c(-c4cccnc4)coc3c2)cc1O [Example 12, 4-[3-(3-pyridyl)benzo[b]furan-6-yl]-1,2-benzenediol hydrobromide]"
8,89,"c1cncc(-c2coc3cc(-c4ccsc4)ccc23)c1 [Example 13, 3-[6-(3-thienyl)benzo[b]furan-3-yl]pyridine hydrochloride]"

# System: not given
# Assay: not given
# Settings: not given
row,melting point [°C],Structure (SMILES)
1,140.5 to 141.5,"c1cncc(-c2ccc3c(-c4cccnc4)coc3c2)c1 [Example 7, 3-[6-(3-pyridyl)benzo[b]furan-3-yl]pyridine]"
